Experimental data published in ChEMBL document CHEMBL4414585, “Inhibition Mechanisms of Indoleamine 2,3-Dioxygenase 1 (IDO1)” (J Med Chem, 2019).
The source made the active and inactive calls. The calls are words filed in the database; no cut-off is given here.

Columns and labels:
[1] = biological target: T1, Indoleamine 2,3-dioxygenase 1 (Homo sapiens, UniProt P14902); assay: Inhibition of purified human recombinant IDO1 expressed in Escherichia coli assessed as reduction in kynurenine production incubated up to 90 mins using L-Trp substrate by Ehrlich's reagent based spectrophotometry
Target sequence in this assay (P14902 whole entry): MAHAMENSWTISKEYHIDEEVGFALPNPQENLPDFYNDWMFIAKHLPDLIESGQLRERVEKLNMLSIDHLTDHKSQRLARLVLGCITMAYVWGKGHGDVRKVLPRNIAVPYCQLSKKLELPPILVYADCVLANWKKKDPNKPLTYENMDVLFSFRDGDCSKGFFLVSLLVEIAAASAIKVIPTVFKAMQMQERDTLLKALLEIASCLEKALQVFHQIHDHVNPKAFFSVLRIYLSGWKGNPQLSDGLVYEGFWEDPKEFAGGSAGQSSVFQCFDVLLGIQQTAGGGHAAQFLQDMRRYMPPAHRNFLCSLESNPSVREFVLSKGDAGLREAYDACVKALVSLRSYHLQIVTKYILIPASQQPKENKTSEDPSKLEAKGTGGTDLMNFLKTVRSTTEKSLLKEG

[2] = biological target: T1, Indoleamine 2,3-dioxygenase 1; assay: Inhibition of IDO1 in IFNgamma-induced human HeLa cells incubated for 5 hrs by Ehrlich's reagent based assay; type: cell-based
Target sequence in this assay (P14902 whole entry): as above

[3] = biological target: T1, Indoleamine 2,3-dioxygenase 1; assay: Binding affinity to human IDO1 expressed in Escherichia coli Rosetta (DE3) assessed induction of shift in Soret peak in phosphate buffer at 200 uM measured over 4 hrs by UV-vis absorption spectroscopy
Target sequence in this assay (P14902 whole entry, looked up): as the sequence (P14902 whole entry) above

[4] = biological target: T1, Indoleamine 2,3-dioxygenase 1; assay: Binding affinity to human IDO1 expressed in Escherichia coli Rosetta (DE3) assessed induction of shift in Soret peak in phosphate buffer at 200 uM in presence of ascorbate and MB reductants measured over 4 hrs by UV-vis absorption spectroscopy
Target sequence in this assay (P14902 whole entry, looked up): as the sequence (P14902 whole entry) above

[5] = biological target: T1, Indoleamine 2,3-dioxygenase 1; assay: (§1) Inhibition of full-length human IDO1 expressed in Escherichia coli Rosetta (DE3) assessed as reduction in kynurenine production at 0.5 to 1 uM pre-incubated for 120 mins before jump dilution with incubation medium containing L-Trp and further incubated for 20 mins by HPLC analysis
Target sequence in this assay (P14902 whole entry, looked up): as the sequence (P14902 whole entry) above

[6] = biological target: T1, Indoleamine 2,3-dioxygenase 1; assay: as §1, with “120 mins in presence of ascorbate and MB reductants before jump” for “120 mins before jump”
Target sequence in this assay (P14902 whole entry, looked up): as the sequence (P14902 whole entry) above

[7] = biological target: T1, Indoleamine 2,3-dioxygenase 1; assay: as §1, with “120 mins in presence of ascorbate and MB reductants and catalase before jump” for “120 mins before jump”
Target sequence in this assay (P14902 whole entry, looked up): as the sequence (P14902 whole entry) above

[8] = biological target: T1, Indoleamine 2,3-dioxygenase 1; assay: (§2) Inhibition of full-length human IDO1 expressed in Escherichia coli Rosetta (DE3) assessed as reduction in kynurenine production at 0.5 to 2.5 uM pre-incubated for 120 mins before jump dilution with incubation medium containing L-Trp and further incubated for 20 mins by HPLC analysis
Target sequence in this assay (P14902 whole entry, looked up): as the sequence (P14902 whole entry) above

[9] = biological target: T1, Indoleamine 2,3-dioxygenase 1; assay: as §2, with “120 mins in presence of ascorbate and MB reductants before jump” for “120 mins before jump”
[10] = biological target: T1, Indoleamine 2,3-dioxygenase 1; assay: as §2, with “120 mins in presence of ascorbate and MB reductants and catalase before jump” for “120 mins before jump”
[11] = biological target: T1, Indoleamine 2,3-dioxygenase 1; assay: Inhibition of IDO1 (unknown origin) by cell based assay
Target sequence in this assay (P14902 whole entry): as above

[12] = biological target: T1, Indoleamine 2,3-dioxygenase 1; assay: Inhibition of IDO1 (unknown origin) by enzymatic assay
Target sequence in this assay (P14902 whole entry): as above

[13] = biological target: T1, Indoleamine 2,3-dioxygenase 1; assay: Selectivity ratio of IC50 for inhibition of IDO1 (unknown origin) by enzymatic assay to IC50 for inhibition of IDO1 (unknown origin) by cell based assay
[14] = biological target: T1, Indoleamine 2,3-dioxygenase 1; assay: Inhibition of full-length human IDO1 expressed in Escherichia coli Rosetta (DE3) using L-Trp substrate by HPLC analysis
Target sequence in this assay (P14902 whole entry): as above

[15] = biological target: T1, Indoleamine 2,3-dioxygenase 1; assay: Binding affinity to human IDO1 expressed in Escherichia coli Rosetta (DE3) assessed induction of shift in Soret peak in phosphate buffer at 200 uM in presence of ascorbate and MB reductants measured over 60 mins by UV-vis absorption spectroscopy (reference value: […] nm)
[16] = biological target: T1, Indoleamine 2,3-dioxygenase 1; assay: Binding affinity to human IDO1 expressed in Escherichia coli Rosetta (DE3) assessed complete protection against heme degradation at 200 uM in presence of ascorbate and MB reductants measured at 45 mins by UV-vis absorption spectroscopy
[17] = biological target: T1, Indoleamine 2,3-dioxygenase 1; assay: Inhibition of full-length human IDO1 expressed in Escherichia coli Rosetta (DE3) assessed as reduction in kynurenine production at 40 to 200 uM pre-incubated for 120 mins before jump dilution with incubation medium containing L-Trp and further incubated for 20 mins by HPLC analysis
[18] = biological target: T1, Indoleamine 2,3-dioxygenase 1; assay: (§3) Inhibition of full-length human IDO1 expressed in Escherichia coli Rosetta (DE3) assessed as enzyme activity by measuring kynurenine production at 40 to 200 uM pre-incubated for 120 mins in presence of ascorbate and MB reductants before jump dilution with incubation medium containing L-Trp and further incubated for 20 mins by HPLC analysis; set-up: scale not given: the % may be the effect or the level left
[19] = biological target: T1, Indoleamine 2,3-dioxygenase 1; assay: as §3, with “reductants and catalase” for “reductants”
[20] = biological target: T1, Indoleamine 2,3-dioxygenase 1; settings: 20 uM
Description: Inhibition of full-length human IDO1 expressed in Escherichia coli Rosetta (DE3) assessed as reduction in kynurenine production at 20 uM pre-incubated for 120 mins before L-Trp addition by HPLC analysis relative to control

[21] = biological target: T1, Indoleamine 2,3-dioxygenase 1; settings: 40 uM
Description: Inhibition of full-length human IDO1 expressed in Escherichia coli Rosetta (DE3) assessed as reduction in kynurenine production at 40 uM pre-incubated for 120 mins before L-Trp addition by HPLC analysis relative to control

[22] = biological target: T1, Indoleamine 2,3-dioxygenase 1; settings: 20 to 40 uM
Description: Inhibition of full-length human IDO1 expressed in Escherichia coli Rosetta (DE3) assessed as reduction in kynurenine production at 20 to 40 uM pre-incubated for 120 mins before L-Trp addition in presence of ascorbate and MB reductants by HPLC analysis relative to control

[23] = biological target: T1, Indoleamine 2,3-dioxygenase 1; settings: 20 to 40 uM; remark: listed apart in the source
Description: Inhibition of full-length human IDO1 expressed in Escherichia coli Rosetta (DE3) assessed as reduction in kynurenine production at 20 to 40 uM pre-incubated for 120 mins before L-Trp addition in presence of ascorbate and MB reductants and catalase by HPLC analysis relative to control

[24] = biological target: T1, Indoleamine 2,3-dioxygenase 1; settings: 20 to 40 uM; remark: listed apart in the source
Description: Inhibition of full-length human IDO1 expressed in Escherichia coli Rosetta (DE3) assessed as reduction in kynurenine production at 20 to 40 uM pre-incubated for 120 mins before jump dilution with incubation medium containing L-Trp and further incubated for 20 mins by HPLC analysis

[25] = Dissociation constant, pKa of the compound; type: physicochemical

For `CC1(C)CCC2=C(O1)c1ccccc1C(=O)C2=O` [LAPACHONE], the IC50 [1] was 440 nM, the IC50 [2] was 1000 nM and the Activity [3] was “inactive”. The Activity [4] was “inactive”, the inhibition [5] was “Active” and the inhibition [6] was “Active”. For the same compound, the inhibition [7] was “inactive”.

In the case of `CC1=CC(=O)c2ccccc2C1=O`, the Activity [3] is reported as “inactive”, the Activity [4] is reported as “inactive” and the inhibition [8] is reported as “Active”. The inhibition [9] was “Active” and the inhibition [10] was “inactive”.

`Clc1ccc(Nc2cn[nH]n2)cc1` gave an IC50 [11] of 23 nM, an IC50 [12] of 11300 nM and a Ratio IC50 [13] of 500. The IC50 [14] was 70000 nM, the Activity [15] was 425 nm and the Activity [16] was “inactive”. The inhibition [17] was “Active”, the Activity [18] was 0% and the inhibition [19] was “inactive”.

`Nc1nonc1/C(=N/O)Nc1ccc(F)c(Cl)c1` gave an inhibition [20] of 82%, an inhibition [21] of 65% and an inhibition [22] of 100%. The inhibition [23] was 100% and the inhibition [24] was “Active”.

`Oc1ccc(Cl)cc1-c1c[nH]nn1` gave a pKa [25] of 8.3.
